{"source": "paper PMC7503225", "about": "“Repositioning Dequalinium as Potent Muscarinic Allosteric Ligand by Combining Virtual Screening Campaigns and Experimental Binding Assays” (International Journal of Molecular Sciences, 2020)", "target": "T1, [3H]-NMS-occupied muscarinic hM1 subtype (Homo sapiens, UniProt P11229)", "T1 sequence (P11229 1-460)": "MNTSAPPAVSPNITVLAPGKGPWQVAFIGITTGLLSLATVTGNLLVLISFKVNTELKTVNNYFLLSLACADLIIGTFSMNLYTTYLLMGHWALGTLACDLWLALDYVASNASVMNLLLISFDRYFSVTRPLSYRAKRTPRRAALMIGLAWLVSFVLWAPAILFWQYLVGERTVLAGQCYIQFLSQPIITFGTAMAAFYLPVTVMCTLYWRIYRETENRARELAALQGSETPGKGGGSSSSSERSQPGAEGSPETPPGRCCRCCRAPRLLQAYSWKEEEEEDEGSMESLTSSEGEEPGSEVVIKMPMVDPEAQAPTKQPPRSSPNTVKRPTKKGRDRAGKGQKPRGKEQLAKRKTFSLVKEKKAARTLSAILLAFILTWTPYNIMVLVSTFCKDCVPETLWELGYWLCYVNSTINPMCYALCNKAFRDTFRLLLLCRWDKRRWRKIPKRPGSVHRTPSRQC", "assay": "biochemical", "protocol": "All tested compounds were purchased from Merck KGaA (Darmstadt, Germany). The radioligand binding experiments were performed with membranes from Chinese Hamster Ovary (CHO) cells stably transfected with the five cloned human muscarinic receptor subtypes (hM1-5). Membrane fractions were prepared according to the protocol, which have been previously described; membranes were stored at −80 °C until use. Nonspecific binding was defined by the radioactivity bound in the presence of 10 µM atropine.\nOff-rate assays were performed as described elsewhere to estimate the affinity of the ligands for the [^3H]-NMS-occupied receptor (log Kocc). Briefly, a high concentration of membranes (about 0.1 mg/mL) was incubated with a high concentration of [^3H]-NMS (2 nM) for 60 min at room temperature (mix membrane). Next, 100 µL aliquots were distributed into polypropylene tubes that were empty or in a final volume of 1 mL binding buffer with 1 µM atropine alone and in the presence of a range of concentrations of tested compound (1 nM–0.1 mM).\nThe effect on the radioligand dissociation of each tested ligand was determined at 0 min and at one time point, which was chosen to be ca 2.5 dissociation half-lives of [^3H]-NMS alone from each subtype receptors. Later (80 min for hM1, 20 min for hM2 and 70 min for hM5), the samples were filtered and counted as previously reported. Non specific binding was measured as previously reported.\nAll the results are expressed as means ± SEM obtained from 3-4 independent experiments each one performed in duplicate."}
{"smiles": "Cc1cc(N)c2ccccc2[n+]1CCCCCCCCCC[n+]1c(C)cc(N)c2ccccc21", "note": "[dequalinium]", "values": [{"measurement": "Kd", "value": 204, "unit": "nM"}]}
